According to patent US20250049747A1, “USE OF HYPERPOLARIZING AGENTS ALONE AND IN COMBINATION WITH OTHER THERAPEUTIC AGENTS FOR TREATING CANCERS INCLUDING GLIOBLASTOMA” (Trustees of Tufts College, priority 2021, published 2025):
Entries after “also recorded” stand apart in the source; their conditions may differ.

Assays:
NG108-15 cells [1] = experiment: Automated patch-clamp electrophysiology, resting membrane potential; assay type: cell-based, mouse/rat; details: NG108-15, immediately after application
Protocol: Electrophysiology. SyncroPatch 384PE platform (Nanion Technologies®) was used to perform the automated patch-clamp experiments. This system provides giga-ohm resistance seals during simultaneous recording in the 384-well plate format. Cells were harvested 48-72 h after seeding 1-2×10^6 cells in T175 culture flasks (Falcon), then cells were rinsed with PBS (5 mL) and treated with 3 mL Accutase ([…] technologies) for 5 min at 37° C., re-suspended in 10 mL of serum-free media and pelleted at 1000 rpm for 3 min at RT. […] The cells were kept until the moment of the experiment in a temperature controlled dedicated reservoir at 10° C. and shaken at 200 rpm as described. The experiments were performed within one hour after the harvesting process. The assays were carried in single-hole chips with resistances between 4-5 MΩ after priming the chip with the following solutions (in mM), physiological extracellular solution (pECS) 10 HEPES, 140 NaCl, 5 Glucose, 4 KCl, 2 CaCl2), 1 MgCl2, 295-305 mOsm pH 7.4 (NaOH). Internal recording solution (in mM) 20 EGTA, 50 KCl, 10 NaCl, 60 KF, 10 HEPES at pH 7.2, and 285 mOsm. 15 μL of the cell suspension (50% v/v pECS/Medium no serum) was added to each well to a final density of 50-80K cells/mL. Cell capture was promoted by holding a negative pressure of −100 mbar for 20 s. After successive hyperpolarization steps from −30 mV to −100 mV enhanced the capture the seal followed by the transient addition of a high Ca2+ extracellular solution (80 mM NaCl, 3 mM KCl, 35 mM CaCl2), 10 mM MgCl2, 10 mM HEPES at pH 7.4 and 298 mOsm. High Ca2+ solution is washed out by successive external exchanges replacing half of the volume of the well each time with the external recording solution. All recording solutions were prepared with ultrapure MilliQ water (18 MD-cm). After the formation of the Giga-seal, a 250 mbar pressure was applied to break the membrane patch. Once in whole-cell configuration, different voltage protocols were applied to dissect different conductances in NG108-15 cells. Signals were recorded in the current-clamp mode “I=0” (passive conditions) where no current was injected, to monitor the membrane potential. The membrane potentials were recorded for seven sweeps of 1 sec, with an inter-sweep time of 10 s. The average membrane potentials of the 7 sweeps were reported.
Electrophysiology of NG108-15 Cells Show Changes in Resting Membrane Potential Induced by Treatment. […] Untreated cells were patched, baseline measurements were taken and then the drugs were added and the changes in the cell Vmem were recorded.

[2] = cited from earlier work
NG108-15 cells [3] = experiment: Antibody staining, BrdU and senescence assays in NG108-15 cells; assay type: cell-based, mouse/rat; details: NG108-15, 6 days
Protocol: Antibody Staining, BrdU and Senescence Assays. NG108-15 cells were plated on PEI and Matrigel coated plates at 15,000 or 30,000 cells/mL, U87 cells at 10,000 cells/mL and grown in imaging media for 6 days with drug treatment. Fresh media was added every 2 days. On day 6, cells were fixed with 4% formaldehyde in PBS for 30 minutes for all antibody staining, except for BrdU which was fixed for 15 minutes, and for the senescence assay which was fixed for 20 min using the Senescence Beta-Galactosidase Staining Kit (9860, CellSignaling) and thereafter stained according to manufacturer's protocol. After fixing, cells were washed twice with PBS, and were permeabilized in PBS with 0.3% Triton-X for 15 min then washed again twice with PBS. The cells for the BrdU assay were additionally treated with 1N HCl for 10 min on ice, followed by a treatment with 2N HCl for 50 min at room temp. Cells were then blocked with standard blocking buffer comprised of TBS containing 10% goat serum, 0.1% BSA, and with 0.05% Tween 20 or without detergent for antibodies against phosphorylated proteins or monoclonal antibodies except for Anti-YAP and Anti-BrdU staining, which were done according to manufacturer's protocol. Primary antibodies were added at the following concentrations: 1:250 anti-S100 beta (GTX129573, Genetex), 1:500 anti-GFAP (AB5804, EMD-Millipore), 1:300 anti-SOX10 (ab155279, Abcam), 1:100 MAP2 (4542, CellSignaling), 1:400 anti-cleaved caspase 3 (9661, CellSignaling), 1:300 anti-Cx43 (STJ2411, St. John's Labratory), 1:800 anti-p27^Kip1 (3698, CellSignaling), 1:150 anti-BrdU (5292, CellSignaling), 1:125 anti-LC3-II (2775, CellSignaling), 8 μg/mL anti-04 (MAB1326, R&D Systems), 1:1000 anti-TH (RPCA-TH, Encor), 1:4000 anti-NSE (RPCA-NSE, Encor), 1:4000 anti-NFM (RPCA-NF-M, Encor), 0.5 μg/mL anti-TujI (801202, Biolegend), 1:400 anti-NF-KB p65 (8242, CellSignaling), 1:125 anti-phospho CREB (05-807, EMD-Millipore), 1:250 anti-vimentin (ab92547, Abcam), 1:125 anti-YAP (14074, CellSignaling). Antibodies were diluted in their respective blocking buffer and incubated overnight at 4° C. The next day, cells were washed with TBS-T or TBS for 3× for 5 min each and secondary antibody was added as follows: 1:1000 donkey anti-mouse 647 (A-31571, Thermo-Fisher) or 1:1000 donkey anti-rabbit 647 (A-31573, Thermo-Fisher). Each were diluted in blocking buffer along with 2.5 μg/mL Hoechst 33342 and incubated for 1 hour at room temperature. Cells were then washed again with TBS-T or TBS for 3× for 5 min each and covered with Gelvatol. Cells were imaged with an EVOS M7000 system, with at least 50% of each well in a 96 well plate imaged and analyzed using a CellProfiler pipeline for measuring integrated intensity, mean intensity, or nuclear to cytoplasmic ratio of mean intensities.

NG108-15 cells [4] = experiment: Growth and FUCCI assays in NG108-15 cells (cell counts, cell cycle, recovery test); details: for cell proliferation compared to control (words): NG108-15, 6 days of treatment
Protocol: Cells were plated in 96 well plates at a low confluence and drugs were added fresh every other day for 6 days. Some studies removed the drug at 6 days and added media with no drug for an additional 4 days to test for proliferation. Images of the cells were taken every day and a cell profiler pipeline was used to count the cells and determine the ratio of cells in each part of the cell cycle. […] Cell Culture. […] Cells were disassociated with Accutase and passaged when 70% confluent and maintained at 37° C. with 5% C02. Media was changed every two days. […] All drug screens including controls were done using 0.02% DMSO in the high serum Fluorobrite DMEM.
Growth and FUCCI assays. Both cell lines were plated at 5,000 cells per mL into black-walled flat-bottom 96-well plates coated with 1/50 dilution of Matrigel. Images of cells were taken on Day 0 and every subsequent day for 10 days using a Zeiss Axio1 fitted with an on-stage incubator and kept at 37° C. with 5% C02. A 5× objective was used along with filters for YFP, RFP, and CFP and careful calibration of each plate was done to ensure that the same fields of view were imaged each day. Drugs were added after the initial images were taken and then changed every two days until day 6. For recovery experiments, after imaging on day 6, all drugs were removed, and cells were put into imaging media without any added drugs. This media was changed every two days until day 10. Analysis of growth and snap shots of FUCCI reporters over the 6 days or 10 days was done using a CellProfiler [72]pipeline designed by the Broad. The fractional difference in cell number was calculated by dividing the total number of cells each day by the total number of cells from day 0. The ratio of cells in each cell cycle stage every day was determined by counting all the nuclei of one color and dividing it by the total number of nuclei. Blind quality control was done on all the images to make sure that any fibers or image artifacts were not incorrectly counted by the program.

[5] = test system: human glioblastoma U87 cells; experiment: Growth and FUCCI assays in U87 cells (cell counts, cell cycle, recovery test); assay type: cell-based; details: for FUCCI cell cycle proportion: U87, day 6
Protocol: U87 (ATCC) cells were cultured under the same conditions as the NG108-15 cells minus the HAT supplement and used at passage 7-10 for experiments.

[6] = human, in vivo; cited from earlier work

Q: For CCOC(=O)Nc1ccc(NCc2ccc(F)cc2)cc1N [Retigabine, retigabine], which “change in resting membrane potential compared to control” value (shortened to “change in resting membrane potential”) (NG108-15 cells [1]) is on record?
A: Its value is “significantly hyperpolarized; also recorded: hyperpolarized NG108-15 cells only slightly”.

Q: What about the “plasma protein binding affinity” value [2] of the same molecule?
A: The value was “about 80%”.

Q: And the BrdU incorporation (NG108-15 cells [3])?
A: The BrdU incorporation was “significant decrease”.

Q: And the “cleaved caspase 3 staining” value (NG108-15 cells [3])?
A: The value was “decrease the cleaved caspase 3 positive cells significantly”.

Q: Which “change in resting membrane potential” value (NG108-15 cells [1]) does the source give for Nc1nnc(-c2cccc(Cl)c2Cl)c(N)n1 [Lamotrigine, lamotrigine] here?
A: The value was “significantly hyperpolarized”.

Q: Which results are given for Cn1nnc2c(C(N)=O)ncn2c1=O [TMZ, temozolomide]?
A: change in resting membrane potential compared to control (NG108-15 cells [1]): significantly hyperpolarized; cell proliferation compared to control (words) (NG108-15 cells [4]): not significantly effective at reducing proliferation; cell proliferation compared to control (words) (NG108-15 cells [4]; listed as temozolomide): not effective; cell proliferation compared to control (words) ([5]; U87, 6 days): significantly effective; percent reduction in cells compared to control ([5]; U87, 6 days of treatment): 43%; FUCCI cell cycle proportion [5]: did not show a large change in proportion of cells; recovery of proliferation after treatment removed ([5]; U87, drugs removed at day 6, followed to day 10): slight increase in proliferation after treatment was removed

Q: For CO[C@H]1C[C@@H]2CC[C@@H](C)[C@@](O)(O2)C(=O)C(=O)N2CCCC[C@H]2C(=O)O[C@H]([C@H](C)C[C@@H]2CC[C@@H](O)[C@H](OC)C2)CC(=O)[C@H](C)/C=C(\C)[C@@H](O)[C@@H](OC)C(=O)[C@H](C)C[C@H](C)/C=C/C=C/C=C/1C [Rapamycin, rapamycin], which “blood-brain barrier penetrance” value [6] is on record?
A: The value was “cross the blood brain barrier effectively”.

Q: And the “change in resting membrane potential” value (NG108-15 cells [1])?
A: Its value is “significantly hyperpolarized”.

Q: What about the “cell proliferation compared to control (words)” value (NG108-15 cells [4]) of the same molecule?
A: The value was “very significant decrease in proliferation”.

Q: And the “FUCCI cell cycle proportion” value (NG108-15 cells [4]; NG108-15, day 6)?
A: The value was “increase in cells arrested at G1; also recorded: increased the proportion of cells in G1”.

Q: What about the “FUCCI cell cycle proportion” value [5] of the same molecule?
A: Its value is “increase in the G1 proportion”.

Q: And the LC3-II stain (NG108-15 cells [3])?
A: The LC3-II stain was “significant increase”.
